Assay results from publication PMC6497424 (ACS Catalysis, 2019).
Blank lines part the entries; values can stand above or below the compound they belong to.

How the values were obtained:
[1] = molecular target: T1, PtHmfF (P. thermopropionicum HmfF) (Pelotomaculum thermopropionicum, UniProt A5D4Z9); test: X-ray crystal structure, […] Å, FMN soak; type: binding; conditions: K+ and Mn2+ present; stable analogue in prFMN site; untagged enzyme
T1 construct: gene UbiD; codon-optimised, full length; pET30a C-terminal His-tag from E. coli BL21(DE3), coexpressed with E. coli UbiX; untagged (pET21b) for crystals; hexamer (D3); The eightfold dimer variant is in pET28a (His-tag)

[2] = molecular target: T2, PtHmfF (P. thermopropionicum HmfF) (Pelotomaculum thermopropionicum, UniProt A5D4Z9, A315N/N348R/F351D/T355N/A388P/F393T/V395F/M399R); test: X-ray crystal structure, […] Å; type: binding; conditions: dimer variant; cofactor copurified from UbiX coexpression
T2 construct: gene UbiD; codon-optimised, full length; pET30a C-terminal His-tag from E. coli BL21(DE3), coexpressed with E. coli UbiX; untagged (pET21b) for crystals; hexamer (D3); The eightfold dimer variant is in pET28a (His-tag)

[3] = molecular target: T1, PtHmfF (P. thermopropionicum HmfF); test: in vitro reconstitution of apo-enzyme; UV-vis spectra and activity; type: biochemical; conditions: reduced prFMN added anaerobically, then oxidative maturation in air; FDCA 900 μM, 25 °C
[4] = molecular target: Pelotomaculum thermopropionicum 2,5-furandicarboxylic acid decarboxylase (HmfF), wild type, untagged (Pelotomaculum thermopropionicum); test: crystal structure; untagged PtHmfF, space group P21, crystals soaked with FMN in the presence of K+ and Mn2+, data to 2.7 Å, six monomers in the asymmetric unit; solved by Se-Met SAD
[5] = molecular target: Pelotomaculum thermopropionicum HmfF dimer variant (A315N, N348R, F351D, T355N, A388P, F393T, V395F, M399R) (Pelotomaculum thermopropionicum); test: crystal structure; PtHmfF dimer variant with prFMN, crystals grown at 4 °C, 2.3 Å, molecular replacement with the WT monomer; two monomers in the asymmetric unit
[6] = molecular target: Pelotomaculum thermopropionicum HmfF dimer variant (A315N, N348R, F351D, T355N, A388P, F393T, V395F, M399R) (Pelotomaculum thermopropionicum); test: SEC-MALS; 25 °C; 500 μL of 1.5 mg/mL protein on Superdex 200 10/300GL; 200 mM KCl, 1 mM MnCl2, 50 mM Tris pH 7.5; 0.75 mL/min

Compound: Cc1cc2nc3c(=O)[nH]c(=O)nc-3n(C[C@H](O)[C@H](O)[C@H](O)COP(=O)(O)O)c2cc1C [FMN]
- X-ray crystal structure, 2.7 Å, FMN soak [1]: revealing clear electron density for both the FMN and the associated metal ions

Compound: Cc1cc2c3c(c1C)C(C)(C)CC=[N+]3c1c([nH]c(=O)[nH]c1=O)N2C[C@H](O)[C@H](O)[C@H](O)COP(=O)(O)O [prFMN]
- X-ray crystal structure, 2.3 Å [2]: the dimer variant crystals contain prFMN in the active site
- in vitro reconstitution of apo-enzyme; UV-vis spectra and activity [3]: HmfF requires oxidative maturation of prFMN for activity

- stoichiometry N [4]: 6
Compound: Pelotomaculum thermopropionicum 2,5-furandicarboxylic acid decarboxylase (HmfF), wild type, untagged (enzyme)

- stoichiometry N [5]: 2
- stoichiometry N [6]: 2
Compound: Pelotomaculum thermopropionicum HmfF dimer variant (A315N, N348R, F351D, T355N, A388P, F393T, V395F, M399R) (enzyme)
